Test results as given in PMC7840129, “Structural basis for heme-dependent NCoR binding to the transcriptional repressor REV-ERBβ” (Science Advances, 2021).

What was measured:
heme-bound REV-ERBβ LBD = target: T1, heme-bound REV-ERBβ LBD (Homo sapiens, UniProt Q14995); experiment: ITC, NCoR ID peptides with heme-bound REV-ERBβ LBD; type: binding; conditions: for TΔS: pH 7.4, T constant at 25°C; for thermodynamic profile of peptide binding (in words), + heme: heme-bound LBD; for effect of heme on LBD affinity for peptide (in words): heme-bound vs apo LBD
T1 construct: The human REV-ERBβ LBD (residues 381 to 579) was previously cloned; 6xHis with 3C protease cleavage site (N, cleaved yes); made in house; host or cells: E. coli BL21(DE3)
T1 sequence (Q14995 381-579): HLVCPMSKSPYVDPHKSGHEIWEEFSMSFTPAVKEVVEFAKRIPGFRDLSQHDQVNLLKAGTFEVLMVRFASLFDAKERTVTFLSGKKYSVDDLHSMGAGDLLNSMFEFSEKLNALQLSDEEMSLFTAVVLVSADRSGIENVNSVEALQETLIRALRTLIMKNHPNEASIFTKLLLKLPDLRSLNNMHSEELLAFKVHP
Experimental: NCoR RID mutants were generated by site-directed mutagenesis: The ID1 CoRNR box motif was mutated from [sequence] to [sequence] (ΔID1 and ΔID1ΔID2), and the ID2 CoRNR box motif was mutated from LEDIIRKAL to TEDTTRKAL (ΔID2 and ΔID1ΔID2), as these mutations were previously reported to disrupt CoRNR box binding ([10], [30]). Heme (Sigma-Aldrich, no. 51280) was prepared either as a 1 mM stock in dimethyl sulfoxide (DMSO) stored at 4°C or 50 mM stock in 0.2 M NaOH (solutions prepared in 0.2 M NaOH were always made fresh immediately before the experiment), where indicated. […] Human embryonic kidney (HEK) 293T cells (American Type Culture Collection, no. CRL-11268) were cultured in Dulbecco’s modified eagle medium (DMEM) supplemented with 10% fetal bovine serum, 2 mM L-glutamine, and 1% penicillin-streptomycin at 37°C and 5% CO2 under standard culture conditions. The pcDNA3.1^+ expression vector containing full-length human REV-ERBβ ([31]) and the pGL3-Bmal1-luciferase construct containing the Bmal1 promoter (−816 to +99 of the mouse Bmal1 promoter region) were used in HEK293T cell transfections. Site-directed mutagenesis was performed to mutate the proximal RORE (pRORE mutant), distal RORE (dRORE mutant), or both (p/dRORE mutant) in the pGL3-Bmal1-luciferase construct based on a previous study ([6]) where the ROREs were mutated to disrupt REV-ERBα activity.
Expression was performed using auto-induction media: Cells were grown at 37°C for 5 hours, 30°C for 1 hour, and 18°C for 16 hours before harvesting by centrifugation. Pellets were resuspended in potassium phosphate lysis buffer [40 mM potassium phosphate (pH 7.4), 500 mM KCl, 15 mM imidazole, and 1 mM dithiothreitol (DTT)] supplemented with leupeptin, pepstatin A, lysozyme, and deoxyribonuclease (DNase) I and sonicated on ice. […] A 5-ml aliquot of 6xHis-tagged protein was purified by size exclusion chromatography using a Superdex 75 column equilibrated in time-resolved fluorescence energy transfer (TR-FRET) assay buffer [20 mM potassium phosphate (pH 7.4), 50 mM KCl, and 0.5 mM EDTA]; purified aliquots were stored at −80°C for TR-FRET assays. To cleave the 6xHis tag from the remaining protein, it was incubated overnight with 3C protease (generated in-house) via dialysis; then, protein was reloaded onto the HisTrap columns, and the flow-through was collected. Last, aggregates were removed by size exclusion chromatography using a Superdex 75 column and Hepes gel filtration buffer [20 mM Hepes (pH 7.4), 50 mM KCl, and 0.5 mM EDTA]. Greater than 95% purity was confirmed by SDS-PAGE. Protein was aliquoted and stored at −80°C.
ITC experiments were performed using a MicroCal iTC200. All experiments were solvent-matched and contained 0.1% DMSO (peptide vehicle) and 0.2% 0.2 M solution of NaOH (heme vehicle) final concentrations.
LBD in the syringe was titrated into ID peptide in the sample cell at 25°C with a 60-s delay between injections (2-μl intervals) with a mixing speed of 1200 rpm for a total of 20 injections (or 2 molar equivalents of LBD), unless otherwise noted below.

[1] = test system: apo 15N-labeled REV-ERBβ LBD; experiment: NMR structural footprinting, 2D [1H,15N]-TROSY-HSQC titration, apo LBD; type: binding, human; conditions: apo LBD (200 μM), 298 K, 20 mM Hepes pH 7.4, 50 mM NaCl, 0.5 mM EDTA
From the text: To support our ITC results, we performed solution NMR structural footprinting by titrating NCoR ID1 or ID2 peptide into ^15N-labeled REV-ERBβ LBD. For this analysis, we used backbone NMR chemical shift assignments that we previously reported for apo LBD ([18]) and collected three-dimensional (3D) NMR data to obtain backbone NMR chemical shift assignments for heme-bound LBD (fig. S4). […] To qualitatively assess the strength of each interaction, we analyzed the exchange regime of NMR chemical shift changes on the NMR time scale. […]
(§1) To generate heme-bound protein, 1.25 molar equivalents of heme prepared in 0.2 M NaOH as a 50 mM stock were added to ^15N-labeled REV-ERBβ LBD (200 μM) or ^2H-,^15N-,^13C-labeled REV-ERBβ LBD (1 mM) in Hepes buffer [20 mM Hepes (pH 7.4), 50 mM NaCl, and 0.5 mM EDTA]. NMR data were collected at 298 K on a Bruker 700-MHz NMR system equipped with a QCI CryoProbe, processed using NMRFx ([40]), and analyzed using NMRViewJ ([41]). […] 2D [^1H,^15N]-TROSY-HSQC data were collected for heme-bound ^15N-labeled REV-ERBβ LBD at 298 K with addition of NCoR ID1 or ID2 peptides prepared as 50 mM stock in DMSO and analyzed in NMRViewJ. […]

[2] = test system: heme-bound 15N-labeled REV-ERBβ LBD; experiment: NMR structural footprinting, 2D [1H,15N]-TROSY-HSQC titration, heme-bound LBD; type: binding, human; conditions: 298 K; for NMR exchange regime on peptide titration: heme-bound LBD (200 μM, 1.25 equivalents heme), 20 mM Hepes pH 7.4, 50 mM NaCl, 0.5 mM EDTA; for NMR CSP and line broadening, binding surface: heme-bound LBD, 2× ID1 or ID2 peptide
From the text: To support our ITC results, we performed solution NMR structural footprinting by titrating NCoR ID1 or ID2 peptide into ^15N-labeled REV-ERBβ LBD. For this analysis, we used backbone NMR chemical shift assignments that we previously reported for apo LBD ([18]) and collected three-dimensional (3D) NMR data to obtain backbone NMR chemical shift assignments for heme-bound LBD (fig. S4). […] To qualitatively assess the strength of each interaction, we analyzed the exchange regime of NMR chemical shift changes on the NMR time scale.
Next, we used differential NMR analysis to structurally map the ID1 and ID2 peptide binding surfaces in the heme-bound LBD. In other NRs, the AF-2 coregulator interaction surface is formed by the physical interaction of helix 12 with a surface formed by helices 3 to 5 within the LBD. REV-ERBβ lacks helix 12 but contains the surface formed by helices 3 to 5 including a conserved lysine residue (K421) on helix 3 important for corepressor interaction ([19]). We quantitatively analyzed chemical shift perturbations (CSPs) and line broadening caused by peptide binding in 2D [^1H,^15N]-TROSY-HSQC NMR spectra (Fig. 1D and fig. S6). […] We also observed binding effects on helix 7, which may be attributed to a peptide-induced allosteric conformational change due to interactions between the heme propionate group and G480 on helix 7 (fig. S7).
For generation of ^15N-labeled REV-ERBβ LBD, protein was expressed in BL21(DE3) E. coli cells using M9 minimal media supplemented with ^15NH4Cl (Cambridge Isotope Laboratories) induced at an optical density at 600 nm (OD600) of 0.6 with 0.5 mM isopropyl-β-D-thiogalactopyranoside (IPTG) for 16 hours at 18°C. For generation of ^2H-,^15N-,^13C-labeled REV-ERBβ LBD (~70% deuteration) for peak assignment experiments, cultures were first grown at 37°C in 1 liter of LB media until an OD600 of 0.6 before the cells were pelleted and resuspended in 0.5 liters of M9 minimal media prepared in D2O supplemented with ^13C-D-glucose and ^15NH4Cl (Cambridge Isotope Laboratories). After 1-hour recovery at 37°C, expression was induced with 0.5 mM IPTG for 16 hour at 37°C before harvesting by centrifugation. […]
as §1

[3] = +Heme LBD, pH 7.4, 25°C, 95% CI

Row | ΔH, enthalpy of binding (heme-bound REV-ERBβ LBD; [3]) [kcal/mol] | TΔS (heme-bound REV-ERBβ LBD; +Heme LBD, 95% CI) [kcal/mol] | thermodynamic profile of peptide binding (in words), + heme (heme-bound REV-ERBβ LBD) | effect of heme on LBD affinity for peptide (in words) (heme-bound REV-ERBβ LBD) | ΔG, free energy of binding (heme-bound REV-ERBβ LBD; [3]) [kcal/mol] | Molecule | NMR exchange regime on peptide titration [1] | NMR exchange regime on peptide titration [2] | NMR CSP and line broadening, binding surface [2]
1 | 3.0 | 10.7 | entropically driven and endothermic | increased LBD affinity | – | CC[C@H](C)[C@H](NC(=O)[C@H](CC(=O)O)NC(=O)[C@H](CCC(=O)O)NC(=O)[C@H](CC(C)C)NC(=O)CNC(=O)[C@H](CC(C)C)NC(=O)[C@H](CC(N)=O)NC(=O)[C@H](CO)NC(=O)[C@H](C)NC(=O)[C@@H]1CCCN1C(=O)[C@H](CC(=O)O)NC(C)=O)C(=O)N[C@H](C(=O)N[C@@H](CCCNC(=N)N)C(=O)N[C@@H](CCCCN)C(=O)N[C@@H](C)C(=O)N[C@@H](CC(C)C)C(=O)N[C@@H](CCSC)C(=O)NCC(=O)N[C@@H](CO)C(=O)N[C@@H](Cc1ccccc1)C(=O)N[C@@H](CC(=O)O)C(=O)N[C@@H](CC(=O)O)C(=O)N[C@@H](CCCCN)C(N)=O)[C@@H](C)CC [NCoR ID2 peptide] | fast | mixture of peak movements in slow and intermediate exchange | AF-2 surface residues including K421 showed the largest CSP changes and line broadening
2 | 1.7 | 9.3 | entropically driven and endothermic | decreased LBD affinity | -7.7 | Ac-RTHRLITLADHICQIITQDFARN-NH2 [NCoR ID1 peptide] | slow | mixture of peak movements in slow and intermediate exchange | AF-2 surface residues including K421 showed the largest CSP changes and line broadening
